This note sets out measurements from patent US20260085315A1, “POLYNUCLEOTIDE COMPOSITIONS AND METHODS FOR TREATMENT OF CANCER” (APTAH BIO, INC., priority 2023, published 2026).

“Also recorded” adds a separate entry of the source. d = 2'-deoxy (DNA); m = 2'-O-methyl

The subject of data set [1] is MCF-7 cell line. Put plainly: Annexin V/propidium iodide apoptosis assay. Type of data set: cell-based, Human. As to conditions: 0.25, 0.5, 1 μM; 24 hours; vs non-treated cells. The method, then:
The apoptosis-inducing potential of ASMO APT20TTMG was evaluated using the method of double labeling of cells with Annexin V and propidium iodide. Annexin V is a peptide that has a high affinity for phosphatidyl serine, a phospholipid distributed asymmetrically in the inner leaflet of the lipid bilayer of membrane plasma under physiological conditions. During the process of cell death by apoptosis, phospholipids asymmetric distribution is lost and phosphatidyl serine is translocated to the outer leaflet of the plasma membrane through a process of externalization. The measurement of the exposure of phosphatidylserine could be detected by Annexin V conjugated to fluorochromes. On the other hand, propidium iodide is a DNA intercalator that only can penetrate the interior of the cell in cases where the selective permeability of the plasma membrane is compromised, which clearly occurs during several processes of cell death.
Pro-apoptotic potential of APT20TTMG was evaluated in the MCF-7 cell line, using the Apoptosis Detection with Annexin V/Propidium Iodide kit (eBioScience). First, cells were cultured in 24-well plates at a density of 1×10^5 cells/well for 24 hours for adhesion. […] Finally, the samples were labeled with Propidium Iodide and analyzed in a flow cytometer (BD FACSCanto II, BD Biosciences) through the acquisition of 10.000 gated events/sample.

Data set [2] has as its system neuroblastoma cell line (SK-N-SH). Description: Cell viability over time. Type of data set: cell-based. The following applies: 0.5 μM; 24, 48, 96, 144 hours; indicating a cytostatic effect. The method, then: FIG. 26 illustrates cell viability results obtained after 24, 48, 96 and 144 hours of incubation with ASMO1 (0.5 μM) in neuroblastoma cell line (SK-N-SH).
Data set [3] concerns U87-MG cell line. Put plainly: Apoptosis assay. Type of data set: cell-based, Human.
Data set [4] concerns Human Glioblastoma Cancer (U-87MG) xenograft. Description: Human glioblastoma xenograft tumor growth. Type of data set: in vivo, athymic nude mice. The following applies: for tumor reduction in relation to the negative control: APT20TTMG 20 mg/kg i.v. q3d, TMZ 5 mg/kg p.o. daily. The method, then:
Subcutaneous inoculation of the tumorigenic Human Glioblastoma Cancer Cell line (U-87MG) results in the formation of solid tumor in athymic nude mice. Under pathogen free conditions, the tumor retains its own characteristics and grows using the growth factors supplied by the host animal. The ability of administered ASMO1 to inhibit the growth of tumor can be a valuable tool to evaluate its efficacy as an anti-tumor agent. Measurement of tumor size at defined intervals of time generates data that can be used to calculate various end point parameters derived from tumor and understand the potency of the test compounds.
Human glioblastoma cancer cells (U-87MG) were cultured and expanded in EMEM (Eagle's Minimum Essential Medium) supplemented with 10% Fetal Bovine Serum (FBS) at 37° C. and 5% CO2. The cells growing at log phase were harvested by trypsinization and centrifuged for 3 minutes at 800 rpm to form a pellet. The pellet was further washed with PBS. Cell suspension stock was prepared to obtain the required cell count. Before cell inoculation, cell viability was determined using trypan blue. 25 μL of cell suspension was stained with 25 μL of trypan blue and viable cells were counted using Neubauer's chamber. Cell number was adjusted by adding serum free media to achieve desired concentration, i.e., 10×10^7/mL.
Cells were diluted such that the concentration of the cells was 10 million cells/100 μL of serum free medium. Overnight thawed Matrigel and cells with medium were mixed 1:1 and a total volume of 200 μL was injected subcutaneously to the donor animals (n=5) at flank region.
Donor animals were monitored for solid tumor growth for at least 3-4 weeks. Tumor size was measured using digital caliper (MITUTOYO, Japan, CP-15Mx) and volume was calculated by using the formula: (L*W2)/2. Once the tumor reached required size ˜500 mm^3, the donor animals were humanely sacrificed, the tumor was harvested and fragmented into ˜30 mg size and implanted subcutaneously to experimental animals (n=50) using the device. All the animals was monitored alternate day for tumor growth/size.
Once the tumor size reached ˜100 mm^3, animals were selected and randomized by stratification method using tumor size into three groups (G1-G3). Treatment for G1-G3 was initiated at this stage. Each group was comprised of 8 animals.
• G1 was served as vehicle control group and treated with normal saline at the dose of 5 mL/kg, daily, intravenously for 3 weeks. • G2 was served as Reference Item treated group and treated with TMZ at the dose of 5 mg/kg, p.o., daily for 3 weeks. • G3 was treated with APT20TTMG at the dose of 20 mg/kg, intravenously, every third day (q3d) for 3 weeks.
Body weight and tumor size were measured weekly twice using digital caliper. At termination, blood was collected through retro-orbital route. Serum/plasma was separated and stored at deep freezer (−20° C.). Post blood collection, animals were humanely sacrificed by CO2 asphyxiation as per latest guidelines issued by CPCSEA. All the vital organ (brain, kidney, liver, lungs, heart) and tumor were dissected out. Vital organs were fixed in 10% NBF and stored. Tumor tissue was dissected out, weighed and portion of tumor tissue was fixed in 10% NBF and another portion is snap frozen and stored at deep freezer (−80° C.).
As shown in FIG. 34A-C, tumor fragments from the U-87MG cell line were implanted in the animals and once the tumor size reached ˜100 mm^3 animals were randomized into 3 experimental groups (G1, G2, and G3). G1: Vehicle, (G2) Reference Item Temozolomide, and (G3) APT20TTMG for a total of 22 days. (A) The tumor volume of the animals was measured twice/a week. (B) Animals were weighed throughout the experiment and the change in weight gain compared to pre-treatment weight was plotted. (C) After the euthanasia of the animals, the tumors were removed and weighed.
(In general: Xenograft models place foreign cells or tissue in a host animal.)

Data set [5] deals with Ki67. Put plainly: Ki67 immunohistochemistry of tumor samples. Type of data set: in vivo, athymic nude mice. As to conditions: treated groups vs non-treated control. The procedure: Immunohistochemistry analysis of Ki67 in tumor samples was also performed. Quantification of the Ki67 in the sections was carried out by visual estimation (Ki67+ve) using two approaches: count of Ki-67 positive tumor cells and Ki67 total area. This process was done using ImageJ public domain software. In the case of the Ki67 total area evaluation, the ImageJ threshold function was used and each image was split into its constituent red, blue and green grayscale images. Further, one of these was selected and processed for threshold values. Values were selected so that the relevant areas (Ki67+ve cells, in this case) were highlighted and the % of area occupied by the selected threshold limits measured.
As shown in FIG. 35A-B, graphs present the individual values of protein quantification of tumors from 8 animals. (A) Ki-67 area, (B) Ki-67 positive tumor cells count.

The mark [6] stands for this setting: two highest concentrations (0.5 and 1 μM).

“APT20TTMG: engineered polynucleotide ASMO1, 24 nt, SEQ ID NO: 3 gtccactaacctttcaggccagcg; targeting moieties 5′-GTCCA-3′ and 5′-CG-3′, U1 snRNP recruiting moiety (GTCCACTAACCTTTCAGGCCAGCG; sugars from the 5' end m5 d14 m5, all phosphorothioate, methylation of C and T or U not given here)”: the “proportion of viable cells, recent/late apoptosis or necrosis” value in data set [1] is recorded as “no change in any of the evaluated parameters”. In data set [2], the “number of viable cells” value is recorded as “remains practically the same”. Further, the late apoptosis entry in data set [3] (0.25 μM) is listed as “trend toward this state”; in data set [3] (setting [6]), “significantly marked for late apoptosis”. In data set [3] (setting [6]), the “viable cells (apoptosis assay)” value is on record as “reduce cell viability”. Besides, in data set [4] (APT20TTMG 20 mg/kg i.v. every third day 3 weeks, TMZ 5 mg/kg p.o. daily 3 weeks), the “tumor growth (tumor volume) vs vehicle group” value is listed as “inhibit tumor growth from day 16”. The final tumor weight entry in data set [4] (between APT20TTMG, TMZ and vehicle groups, after euthanasia) was “no statistical difference”. Also, the results for the “tumor reduction in relation to the negative control” value in data set [4] (day 20) and in data set [4] (day 22) were 46.7±10.7% and 42±13.2%, respectively. Further, the “Volume (tumor)” value in data set [4] (individual animals, G3 APT20TTMG, G2 TMZ) was “Volume 321.5; also recorded: Volume 768.1; also recorded: Volume 796.8; also recorded: Volume 62.3; also recorded: Volume 1441.5; also recorded: Volume 953.5”. The “Ki67 (positive tumor cell count and total area)” value in data set [5] is listed as “did not detect any statistical differences”.
